Measurements taken from patent US20060183909A1, “Compositions derived from quinoline and quinoxaline, preparation and use thereof” (priority 2001, published 2006).
“Also recorded” adds a separate entry of the source. Where two headings read alike, the source gives them in different places.

Legend:
[1] = tested on: xanthurenic acid receptor; assay: Screening: displacement of [3H]-XA binding to synaptic membranes at a fixed concentration; details: for % inhibition of XA binding at 10 μM* / real increase in total binding (potentiation): compound at 10 μM; for % inhibition of XA binding at 10 μM* / % inhibition of XA binding at 50 μM* / real increase in total binding (potentiation): 200 nM [3H]-XA, synaptic membranes; for % inhibition of XA binding at 10 μM* / % inhibition of XA binding at 50 μM*: xanthurenic acid set arbitrarily to 100%; for % inhibition of XA binding at 50 μM*: compound at 50 μM
Protocol: If this concentration produces the same or greater displacement than the same concentration of non-radiolabelled XA, then an IC50 is determined. […] The incubation time is 25 min. […] The filters are placed in scintillation vials to which 5 ml of Rotiszint® (Roth) are added and the vials are counted in a Beckman LS6000sc liquid scintillation counter. Specific binding is given as the difference between total binding and nonspecific binding. The percentage inhibition of binding that the synthetic compounds produce is calculated for each compound in relation to its positive control.

[2] = target: xanthurenic acid receptor; assay: Competition protocol, IC50 determination against [3H]-XA binding on synaptic membranes
Protocol: Binding is carried out in 50 mM Pipes buffer pH 7.4 at 0° C. […] If the compound reversibly binds to the binding site of [^3H]-XA, the two ligands will compete with each other and a binding displacement curve for [^3H]-XA can be plotted against the concentration of the competitor molecule. The incubation time is 25 minutes, followed by filtration.

[3] = tested on: xanthurenic acid receptor; assay: In vitro electrophysiology experiments, block of xanthurenic acid effects; format: cell-based
[4] = tested on: xanthurenic acid receptor; assay: In vivo studies of stereotypic behaviors, block of xanthurenic acid effects
[5] = two site binding model, second (higher) IC50, 200 nM [3H]-XA, synaptic membranes, read-out: IC50 (μM), second of two values
[6] = single value, inhibition of binding of 200 nM [3H]-XA, synaptic membranes, read-out: IC50

SMILES	% inhibition of XA binding at 10 μM* [1]	other results
O=C(O)c1cc(O)c2cccc(O)c2n1 [Xanthurenic acid, reference compound]	100%	% inhibition of XA binding at 50 μM* [1]: 100%; IC50 ([2]; competition between [3H]-XA and non-radiolabelled XA, read-out: IC50, first site of two site binding model): 0.3 µM; IC50 [2, 5]: 57 µM
O=C(O)c1cc(O)c2cc(Br)cc(O)c2n1 [Compound 3k, 4,8-dihydroxy-6-bromo-quinoline-2-carboxylic acid]		IC50 [2, 6]: 12 µM
O=C(O)c1cc(O)c2cc(-c3ccccc3)cc(O)c2n1 [Compound 19f, 4,8-dihydroxy-6-pheenyl-quinoline-2-carboxylic acid]	163.1%	IC50 [2, 6]: 5.2 µM
O=C(O)c1cc(O)c2c(Cl)cc(Cl)c(O)c2n1 [Compound 3i, 4,8-dihydroxy-5,7-dichloro-quinoline-2-carboxylic acid]	163%	% inhibition of XA binding at 50 μM* [1]: 80%; IC50 [2, 6]: 4.6 µM
Nc1cccc2c(O)cc(C(=O)O)nc12 [Compound 3u, 4-hydroxy-8-amino-quinoline-2-carboxylic acid]		effect on xanthurenic acid effects in vitro (electrophysiology) [3]: blocks the effects of xanthurenic acid without displaying an intrinsic effect; effect on xanthurenic acid binding, in words [1]: quite potent inhibitor of xanthurenic acid binding; also recorded: potent inhibitors of XA binding to its site; % inhibition of XA binding at 50 μM* [1]: 106%; IC50 [2, 6]: 14.6 µM; effect on xanthurenic acid effects in vivo (stereotypic behaviors) [4]: blocks the effects of xanthurenic acid without displaying an intrinsic effect
O=C(O)c1ccc2cccc(O)c2n1		IC50 ([2]; two site binding model, first (lower) IC50, 200 nM [3H]-XA, synaptic membranes, read-out: IC50 (μM), first of two values): 0.09 µM; IC50 [2, 5]: 12.3 µM
CN1CCN(c2cc(N)c3nc(C(=O)O)cc(O)c3c2)CC1.Cl [Compound 124b, 6-N-(N-methylpiperazinyl)-8-amino-4-hydroxy-quinoline-2-carboxylic acid hydrochloride]	109%	
Cl.O=C(O)c1cc(O)c2cccc(Nc3ccccn3)c2n1 [Compound 109b, 4-hydroxy-8-(pyridin-2-yl-amino)-quinoline-2-carboxylic acid hydrochloride]	112%	
NC(=O)c1cccc2c(O)cc(C(=O)O)nc12 [Compound 37c, 8-carboxamide-4-hydroxy-quinoline-2-carboxylate acid]	77%	
Cl.Nc1cc(CCc2cccnc2)cc2c(O)cc(C(=O)O)nc12 [Compound 122c, 6-(pyridin-3-yl)ethyl-8-amino-4-hydroxy-quinoline-2-carboxylic acid hydrochloride]	29%	
Cc1ccc(S(=O)(=O)Nc2cc(C(=O)O)nc3c(O)cccc23)cc1 [Compound 16a, 8-hydroxy-4-(toluene-4-sulfonylamino)-quinoline-2-carboxylic acid]		% inhibition of XA binding at 50 μM* [1]: 77%
Cl.Nc1cc(N)c2nc(C(=O)O)cc(O)c2c1 [Compound 32d, 6,8-diamino-4-hydroxy-quinoline-2-carboxylic acid hydrochloride]	117%	
O=C(Nc1cccc2c(O)cc(C(=O)O)nc12)c1ccccc1 [Compound 28c, 8-benzoylamino-4-hydroxy-quinoline-2-carboxylic acid]	48.5%	
O=C(O)c1cc(O)c2ccc(CCc3ccccc3)c(O)c2n1 [Compound 55b, 4,8-dihydroxy-7-phenethyl-quinoline-2-carboxylic acid]	103%	
O=C(O)c1cc(O)c2cc(CCc3ccccc3)cc(O)c2n1 [Compound 22a, 4,8-dihydroxy-6-phenethyl-quinoline-2-carboxylic acid]	54%	
Cl.Nc1cccc2c(CCCO)cc(C(=O)O)nc12 [Compound 96c, 8-amino-4-(3-hydroxy-prop-1-yl)-quinoline-2-carboxylic acid hydrochloride]	17%	
Nc1ccc(CCCO)c2c(O)cc(C(=O)O)nc12 [Compound 75c, 5-hydroxypropyl-8-amino-4-hydroxy quinoline-2-carboxylic acid]	31%	
O=C(O)c1cc(O)c2cccc(F)c2n1 [Compound 36c, 8-fluoro-4-hydroxy-quinoline-2-carboxylic acid]	94%	
CCCCCCCc1cc(O)c2nc(C(=O)O)cc(O)c2c1 [Compound 22b, 4,8-dihydroxy-6-heptyl-quinoline-2-carboxylic acid]	38%	

SMILES	% inhibition of XA binding at 10 μM* [1]	other results
CN(C)c1cccc2c(O)cc(C(=O)O)nc12 [Compound 41d, 8-dimethylamino-4-hydroxy-quinoline-2-carboxylic acid]	43%	
CCc1cc(C#N)c2nc(C(=O)O)cc(O)c2c1 [Compound 69d, 8-cyano-6-ethyl-4-hydroxy-quinoline-2-carboxylic acid]	26%	
N#Cc1cccc2c(O)c(C#Cc3ccccc3)c(C(=O)O)nc12 [Compound 67c, 8-cyano-4-hydroxy-3-phenylethynyl-quinoline-2-carboxylic acid]	0%	
CN1CCN(c2cc(C(=O)O)nc3c(O)cccc23)CC1.Cl [Compound 110c, 8-hydroxy-4-(4-methyl-piperazin-1-yl)-quinoline-2-carboxylic acid hydrochloride]	166%	
N#CCCCCCc1cc(N)c2nc(C(=O)O)cc(O)c2c1 [Compound 123c, 6-(5′-cyanopentyl)-8-amino-4-hydroxy-quinoline-2-carboxylic acid]	100%	
O=C(O)c1cc(=O)c2ccccc2[nH]1 [Kynurenic acid, reference compound]	Potentiation	effect on xanthurenic acid binding, in words [1]: increase the binding of xanthurenic acid; real increase in total binding (potentiation) [1]: (+70% real increase
N#Cc1cc(CCc2ccccc2)cc2c(O)cc(C(=O)O)nc12 [Compound 65d, 8-cyano-4-hydroxy-6-phenethyl-quinoline-2-carboxylic acid]	18%	
CC(=O)Nc1cccc2c(O)cc(C(=O)O)nc12 [Compound 28a, 8-acetylamino-4-hydroxy-quinoline-2-carboxylic acid]	0%	
NCCCc1cc(N)c2nc(C(=O)O)cc(O)c2c1 [Compound 121c, 6-(3′-aminopropyl)-8-amino-4-hydroxy-quinoline-2-carboxylic acid]	120%	
O=C(O)c1cc(O)c2cccc(CCc3ccccc3)c2n1 [Compound 111c, 4-hydroxy-8-phenylethyl-quinoline-2-carboxylic acid]	109%	
Nc1cc(O)cc2c(O)cc(C(=O)O)nc12 [Compound 79d, 6-hydroxy-8-amino-4-hydroxy-quinoline-2-carboxylic acid]	60%	
Cl.NCCCc1cc(O)c2nc(C(=O)O)cc(O)c2c1 [Compound 22c, 4,8-dihydroxy-6-(3-amino-propyl)-quinoline-2-carboxylic acid hydrochloride]	Potentiation	effect on xanthurenic acid binding, in words [1]: increase the binding of xanthurenic acid; real increase in total binding (potentiation) [1]: (+100% real increase
Cc1cc(N)c2nc(C(=O)O)cc(O)c2c1 [Compound 3w, 4-hydroxy-6-methyl-8-amino-quinoline-2-carboxylic acid]	0%	
Cc1ccc(N)c2nc(C(=O)O)cc(O)c12 [Compound 3v, 4-hydroxy-5-methyl-8-amino-quinoline-2-carboxylic acid]	23.4%	
Cl.O=C(O)c1cc(O)c2cc(C3CCCCN3)cc(O)c2n1 (stereo not shown) [Compound 61b, 4,8-dihydroxy-6-piperidin-2-yl-quinoline-2-carboxylic acid hydrochloride]	97%	
Nc1cc(Cl)cc2c(O)cc(C(=O)O)nc12 [Compound 117d, 6-chloro-8-amino-4-hydroxy-quinoline-2-carboxylic acid]	97%	
O=C(O)c1ccc2c(-c3ccccc3)ccc(O)c2n1 [Compound 19t, 8-hydroxy-5-phenyl-quinoline-2-carboxylic acid]	50%	
Cl.O=C(O)c1cc(O)c2cccc(N3CCCCC3)c2n1 [Compound 102b, 4-hydroxy-8-(piperidin-1-yl)-quinoline-2-carboxylic acid hydrochloride]	92%	
